Reference: paper PMC9287337 (Scientific Reports, 2022)

Legend:
p-p38 = assay: Western blot of p-p38; format: cell-based, mouse; settings: 0.01–10 µM, 15 min
Experimental: (§1) Whole cell lysates were prepared from the treated cultures for Western blot analysis.
(§2) C2C12 cells (3 mL) were seeded into 35 mm dishes at 7.5 × 10^4 cells/mL in complete growth medium, incubated to reach 80% confluence and serum-starved for 16–18 h. […] Thereafter, the cultures were washed with ice-cold 1X TBS for 2 min. Lysis Buffer (Cell Signaling Technology, Danvers, MA, USA) supplemented with 1 mM PMSF (phenylmethylsulphonyl fluoride) was added to the cultures and whole cell lysates were prepared.
(§3) Laemmli sample buffer (4X) was added to the whole cell lysates (20 µg) to a final concentration of 1X and heated at 100 °C for 5 min. The samples were immediately cooled on ice for 5 min and centrifuged at 9500 rpm for 2 min at RT. The samples and the Precision Plus Protein Standard (5 µL; Bio-Rad, Hercules, CA, USA) were loaded on 12% SDS polyacrylamide gels. […] Finally, the blots were developed using SuperSignal ™ West Femto HRP Substrate solutions (Thermo Scientific, Rockford, IL, USA) and analysed using the Omega Lum™ G Imaging System (San Francisco, CA, USA). Quantification of chemiluminescent signals was carried out using ImageJ (Image Processing and Analysis in Java 1.8.0_112).

C2C12 cells = assay: Cell cycle analysis by flow cytometry; format: cell-based, mouse; settings: 24 h
Experimental: C2C12 cells were starved in SS medium followed by 24-h treatment with 0.01–10 µM SY-LB-35 or SY-LB-57. The distribution of cell cycle phases was analyzed with respect to the control, untreated cells (Fig. 9). […] Furthermore, the percentage of cells in G0/G1 phase decreased with respect to control following the treatment of C2C12 cells with the indolyl-benzimidazole compounds (****p < 0.0005; ***p < 0.001; **p < 0.01; Fig. 9A). Thus, SY-LB-35 and SY-LB-57 at all tested concentrations shifted the cell cycle in C2C12 cells toward proliferation causing a significant decline in the population of cells in G0/G1 phase and a sharp increase in the percentage of cells present in proliferative phases of the cell cycle (S and G2/M).
Equal numbers (~ 10^6) of cells, from each treatment counted as above were collected, fixed with 4% paraformaldehyde (PFA) for 10 min at RT and pelleted at 300 g for 5 min. Cell pellets were washed with Stain buffer (BD Pharmingen, San Diego, CA, USA) followed by permeabilization with 90% ice-cold methanol for 15 min at 4 °C. The cells were again washed with Stain buffer and the pelleted cells were stained with BD Pharmingen Propidium Iodide/RNase Staining Buffer (0.5 mL/10^6 cells) for 30 min at RT while protected from light. Following two more washes, the pellet was resuspended in 225 µL Stain buffer and the cells were divided into 3 microcentrifuge tubes (75 µL each) for analysis with the Amnis® Flowsight Imaging Flow Cytometer (Austin, TX, USA). IDEAS® software (version 6.2, Seattle, WA, USA) was used to analyse the data files.

[1] = tested on: p-Akt (Akt phosphorylation); assay: Western blot of p-Akt normalized to total Akt; format: cell-based; settings: Mus musculus, 0.25 h, 15 min, read-out: p-Akt level, percent of control
Experimental: To ascertain whether these novel indolyl-benzimidazole compounds can also activate non-canonical BMP-related pathways, stimulation of the PI3K/Akt pathway was assessed by first monitoring changes in the level of p-Akt in response to SY-LB-35 and SY-LB-57.
as §2
Laemmli sample buffer (4X) was added to the whole cell lysates (20 µg) to a final concentration of 1X and heated at 100 °C for 5 min. The samples were immediately cooled on ice for 5 min and centrifuged at 9500 rpm for 2 min at RT. The samples and the Precision Plus Protein Standard (5 µL; Bio-Rad, Hercules, CA, USA) were loaded on 12% SDS polyacrylamide gels. Protein was separated using the Bio-Rad Mini Protean II Gel Electrophoresis System at 135 V. Meanwhile, 0.2 µm nitrocellulose membranes were pre-incubated in cold 1X Transfer Buffer (10 mM Tris/2.5 mM glycine/20% methanol) for at least 30 min. Next, the separated proteins were transferred at 100 V onto the pre-equilibrated nitrocellulose membranes for 1 h in Transfer Buffer, followed by blocking in 5% BSA/0.1% Tween 20/1X TBS for 30 min. The membranes were incubated overnight at 4 °C with the desired primary rabbit monoclonal antibody (p-Smad1/5(S463/465)/9(S465/467), Smad1 (D5907) XP®, p-Akt (Ser473) (D9E) XP®, or Akt (pan) (C67E7), p-SAPK/JNK (Thr183/Tyr185), SAPK/JNK, β-actin (Cell Signaling Technologies, Danvers, MA, USA)) or rabbit polyclonal antibody (phospho-PI3 Kinase p85 (Tyr458)/p55 (Tyr199) antibody (Cell Signaling Technologies, Danvers, MA, USA), p-p38 MAPK, p38 MAPK, p-ERK1, ERK1/2) (Abclonal, Woburn, MA, USA)) in Antibody Dilution Buffer (1% BSA/0.1% Tween 20/1X TBS) and then washed with 1X TBST (0.1% Tween 20/1X TBS) three times for 15 min. HRP-conjugated Goat Anti-Rabbit IgG secondary antibody (Santa Cruz Biotechnology, Inc., Dallas, TX, USA) in Antibody Dilution Buffer was added to the membranes for 1 h at RT followed by three 15-min washes with 1X TBST. Finally, the blots were developed using SuperSignal ™ West Femto HRP Substrate solutions (Thermo Scientific, Rockford, IL, USA) and analysed using the Omega Lum™ G Imaging System (San Francisco, CA, USA). Quantification of chemiluminescent signals was carried out using ImageJ (Image Processing and Analysis in Java 1.8.0_112).

[2] = tested on: p-Smad nuclear translocation; assay: Immunofluorescent labeling of p-Smad nuclear translocation; format: cell-based, mouse; settings: 1 µM, 30 min
Experimental: Serum-starved C2C12 cells grown on poly-D-lysine (PDL)-coated coverslips were stimulated with BMP2 (50 ng/mL), SY-LB-35 (1 µM) or SY-LB-57 (1 µM) for 30 min.
In a 24-well plate, 12 mm glass coverslips were coated for 1 h at RT with 500 µL PDL (0.1 mg/mL/ 0.1 M Boric acid), washed 4 times with cell culture-grade distilled water and sterilized under UV light for 30 min. C2C12 cells (500 µL) were seeded onto the PDL-coated coverslips at a density of 1 × 10^5 cells/mL, grown to 80% confluency and starved in SS medium for 2 h. Next, the cells were treated with 50 ng/mL BMP2 or 1 µM SY-LB-35 or SY-LB-57 for 15 min (for p-Akt labelling) or 30 min (for p-Smad labelling). Cells were then fixed using ice-cold 4% PFA/PBS for 10 min at RT. Next, the coverslips were washed with ice-cold 1X PBS, transferred to a humidified chamber and incubated (100 µL/coverslip) in Permeabilization solution (0.1% Triton X-100/PBS) for 15 min, then Blocking Buffer (10% heat inactivated goat serum/ 0.3% Triton X-100/PBS) for 30 min. Anti-p-Smad antibodies in Antibody Dilution Buffer (1% BSA/0.1% Tween 20/PBS) were added for 1 h and the coverslips were washed 4 times with 1X PBS. The Cy3-conjugated goat anti-rabbit IgG secondary antibodies (Jackson Immuno Research Labs, West Grove, PA, USA) in Antibody Dilution Buffer were added for 1 h followed by 4 washes with 1X PBS and once with dH2O. […]

p-ERK = assay: Western blot of p-ERK; format: cell-based, mouse; settings: 0.01–10 µM, 15 min
Experimental: as §1, §2, §3

SMILES | p-p38 level (p-p38) | Cells in G0/G1 phase (C2C12 cells; 0.01 µM) | Cells in G2/M phase (C2C12 cells; 0.01 µM) | Cells in S phase (C2C12 cells; 0.01 µM) | Cells in G0/G1 phase (C2C12 cells; 0.1 µM) | Cells in G2/M phase (C2C12 cells; 0.1 µM) | Cells in S phase (C2C12 cells; 0.1 µM) | Cells in G0/G1 phase (C2C12 cells; 1 µM) | Cells in G2/M phase (C2C12 cells; 1 µM) | Cells in S phase (C2C12 cells; 1 µM) | Cells in G0/G1 phase (C2C12 cells; 10 µM) | Cells in G2/M phase (C2C12 cells; 10 µM) | Cells in S phase (C2C12 cells; 10 µM) | activity at 0.01 µM [1] | activity at 0.1 µM ([1]; 0.1 µM) | activity at 1 µM ([1]; 1 µM) | activity at 10 µM [1] | p-Smad nuclear translocation [2] | p-ERK level (p-ERK)
Oc1ccc2[nH]c(-c3nc4ccccc4[nH]3)cc2c1 [SY-LB-35] | stimulated increases | 76% | 13% | 11% | 76% | 12% | 12% | 77% | 11% | 12% | 76% | 11% | 12% | 945% | 826% | 887% | 766% | induced the translocation of p-Smad into the nucleus | stimulated increases
COc1ccc2[nH]c(-c3nc4ccccc4[nH]3)cc2c1 [SY-LB-57] | stimulated increases | 76% | 13% | 13% | 76% | 11% | 14% | 77% | 11% | 12% | 79% | 10% | 13% | 827% |  |  | 995% | induced the translocation of p-Smad into the nucleus | stimulated increases
